The text below walks through data of patent US6939711B2, “Control of gene expression in plants by receptor mediated transactivation in the presence of a chemical ligand” (Syngenta Investment Corporation, priority 1995, dated 2005).

Where two headings read alike, the source gives them in different places.

Assay [1] concerns the target T1, receptor polypeptides EcR and USP (Drosophila melanogaster, UniProt P34021).
T1 construct: expressed in transfected cells; host or cells: maize suspension cells (microprojectile bombardment)
T1 sequence (P34021 1-878): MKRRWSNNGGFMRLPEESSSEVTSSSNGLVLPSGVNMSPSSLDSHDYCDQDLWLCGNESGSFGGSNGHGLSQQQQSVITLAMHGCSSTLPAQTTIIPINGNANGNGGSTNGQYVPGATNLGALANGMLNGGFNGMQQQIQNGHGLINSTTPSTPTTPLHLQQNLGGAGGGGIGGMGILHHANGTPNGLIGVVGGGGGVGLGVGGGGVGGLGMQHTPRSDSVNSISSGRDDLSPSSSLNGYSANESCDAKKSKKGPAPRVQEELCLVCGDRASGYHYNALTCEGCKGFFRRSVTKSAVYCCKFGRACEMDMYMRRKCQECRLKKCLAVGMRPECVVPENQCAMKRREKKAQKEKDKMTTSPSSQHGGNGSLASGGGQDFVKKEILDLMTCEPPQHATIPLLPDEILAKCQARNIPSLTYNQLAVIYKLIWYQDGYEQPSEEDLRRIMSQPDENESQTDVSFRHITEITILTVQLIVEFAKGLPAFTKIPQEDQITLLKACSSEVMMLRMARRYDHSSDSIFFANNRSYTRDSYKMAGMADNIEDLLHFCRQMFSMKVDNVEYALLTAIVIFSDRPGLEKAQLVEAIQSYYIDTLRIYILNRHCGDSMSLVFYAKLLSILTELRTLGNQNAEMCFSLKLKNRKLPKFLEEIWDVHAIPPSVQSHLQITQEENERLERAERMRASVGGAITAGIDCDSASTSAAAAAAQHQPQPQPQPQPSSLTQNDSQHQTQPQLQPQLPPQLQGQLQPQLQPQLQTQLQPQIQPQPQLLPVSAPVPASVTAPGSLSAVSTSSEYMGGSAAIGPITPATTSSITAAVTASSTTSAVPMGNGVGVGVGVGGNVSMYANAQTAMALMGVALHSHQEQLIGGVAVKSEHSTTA
T1 sequence (P20153 1-508 partner): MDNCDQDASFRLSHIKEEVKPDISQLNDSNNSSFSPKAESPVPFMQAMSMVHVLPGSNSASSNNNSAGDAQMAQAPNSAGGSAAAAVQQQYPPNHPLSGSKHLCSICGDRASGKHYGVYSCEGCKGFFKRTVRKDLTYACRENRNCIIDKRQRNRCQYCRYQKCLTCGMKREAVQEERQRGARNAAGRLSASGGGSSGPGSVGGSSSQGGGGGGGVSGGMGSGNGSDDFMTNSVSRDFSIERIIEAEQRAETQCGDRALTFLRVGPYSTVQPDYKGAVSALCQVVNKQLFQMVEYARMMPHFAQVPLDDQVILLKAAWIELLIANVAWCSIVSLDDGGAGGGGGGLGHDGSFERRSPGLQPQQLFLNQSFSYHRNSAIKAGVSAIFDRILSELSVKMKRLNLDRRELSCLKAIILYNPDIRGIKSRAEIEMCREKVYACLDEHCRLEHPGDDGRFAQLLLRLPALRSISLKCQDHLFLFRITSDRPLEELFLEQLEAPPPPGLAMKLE
The assay can be described thus: Luciferase reporter transactivation, 35S/EcR + 35S/USP with (EcRE)5-Bz1/Luc co-transformed into maize cells. The format is cell-based. Particulars: approximately 48 hours. From the text: (§1) Control of target polypeptide expression by various receptor polypeptides, including the chimeric receptor polypeptides of the present invention, can be shown by simultaneously transforming plant cells with the necessary gene constructions using high velocity microprojectile bombardment, followed by biochemical assay for the presence of the target polypeptide. The necessary gene constructions comprise a first receptor expression cassette which encodes a first receptor polypeptide and a second receptor expression cassette which encodes a second receptor polypeptide. In addition, a target expression cassette which-encodes a target polypeptide is also necessary (FIG. 1).
(§2) The expression cassettes were simultaneously delivered to maize suspension cells cultured in liquid N6 medium (Chu et al. Scientia Sinica XVIII:659-668, 1975) by high velocity microprojectile bombardment using standard techniques of DNA precipation onto microprojectiles and high velocity bombardment driven by compressed helium (PDS-1000/He, BioRad, Hercules, Calif.). […] Target polypeptide expression was detected by assaying the extract for the presence of the product encoded by the target expression cassette. […]
(Reporter assays use an easily measured gene product as a stand-in for the process of interest.)

Assay [2] concerns the target T2, receptor polypeptide EcR and chimeric receptor polypeptide VP16-USP (Drosophila melanogaster, UniProt P34021).
T2 construct: expressed in transfected cells; host or cells: maize suspension cells (microprojectile bombardment)
T2 sequence (P34021 1-878): T1 sequence (P34021 1-878)
The format is cell-based. Particulars: 48 hours, maize cells, 35S/EcR + 35S/VP16-USP, (EcRE)6-Bz1/Luc.
Excerpt: as §1
The expression cassettes were simultaneously delivered to maize suspension cells cultured in liquid N6 medium (Chu et al. Scientia Sinica XVIII:659-668, 1975) by high velocity microprojectile bombardment using standard techniques of DNA precipation onto microprojectiles and high velocity bombardment driven by compressed helium (PDS-1000/He, BioRad, Hercules, Calif.). Transfected cells were incubated in liquid suspension in the presence of the appropriate chemical ligand for approximately 48 hours in N6 media After incubation, the transformed cells were harvested then homogenized at 0° C. Debris in the extracts was removed by centrifugation at 10,000 g at 4° C. for 5 minutes. Target polypeptide expression was detected by assaying the extract for the presence of the product encoded by the target expression cassette. One commonly used coding sequence for the target polypeptide when testing control of expression by the receptor polypeptides in the presence of a chemical ligand is firefly luciferase. The activity of firefly luciferase is determined by quantitating the chemiluminescence produced by luciferase catalyzed […] of luciferin using ATP as substrate (Promega Luciferase Kit, cat. no. E1500), using an Analytical Luminescence Model 2001 luminometer. […]

For assay [3], the target named is T3, receptor polypeptides GAL4-EcR^330-878 and USP-VP16 (Drosophila melanogaster, UniProt P34021).
T3 construct: expressed in transfected cells; host or cells: maize suspension cells (microprojectile bombardment)
The assay is described as follows: Luciferase reporter transactivation, 35S/GAL4-EcR^330-878 + 35S/USP-VP16 with (GAL4)10-Bz1/Luc in maize cells. Format: cell-based.
Excerpt: as §1, §2

Assay [4] has as its target T4, receptor polypeptides GAL4-EcR^330-825-C1 and USP-VP16 (UniProt P34021).
T4 construct: expressed in transfected cells; host or cells: maize suspension cells (microprojectile bombardment)
The assay is described as follows: Luciferase reporter transactivation, 35S/GAL4-EcR^330-825-C1 + 35S/USP-VP16 with (GAL4)10-Bz1/Luc in maize cells. The format is cell-based, Drosophila. Particulars: 10 μM ligand, approximately 48 hours, 35S/GAL4-EcR^330-825-C1 + 35S/USP-VP16, (GAL4)10-Bz1/Luc.
Excerpt: as §1, §2

Assay [5] addresses T5, receptor polypeptide USP and chimeric receptor polypeptide EcR^227-825-C1 (Drosophila melanogaster, UniProt P34021).
T5 construct: expressed in transfected cells; host or cells: maize suspension cells (microprojectile bombardment)
The assay can be described thus: Luciferase reporter transactivation, 35S/USP + 35S/EcR^227-825-C1 with (EcRE)6-Bz1/Luc in maize cells. Particulars: 10 μM ligand, 48 hours, 35S/USP + 35S/EcR^227-825-C1, (EcRE)6-Bz1/Luc. Format: cell-based.
Excerpt: as §1, §2

Assay [6] has as its target T6, receptor polypeptides GAL4-EcR^330-825-C1 and VP16-USP (Drosophila melanogaster, UniProt P34021).
T6 construct: expressed in transfected cells; host or cells: maize suspension cells (microprojectile bombardment)
The assay can be described thus: Luciferase reporter transactivation, 35S/GAL4-EcR^330-825-C1 + 35S/VP16-USP with (GAL4)10-Bz1/Luc in maize cells. The format is cell-based. Particulars: 10 μM ligand, approximately 48 hours.
Excerpt: as §1, §2

The target of assay [7] is USP-VP16 chimeric receptor polypeptide (Drosophila; herpes simplex virus) (UniProt P20153). The assay is described as follows: cell-based or functional assay.

For `CC(C)CC[C@@H](O)[C@](C)(O)[C@H]1CC[C@@]2(O)C3=CC(=O)[C@]4(O)C[C@@H](O)[C@@H](O)C[C@]4(C)[C@H]3[C@H](O)C[C@]12C` [Muristerone, muristerone], the “Luciferase Activity (light units)” value in assay [1] (2 μM ligand) is reported as 1351 light units; in assay [2] (2 μM ligand), 12,374 light units.
Take `CCc1ccc(C(=O)NN(C(=O)c2cc(C)cc(C)c2)C(C)(C)C)cc1` [RH5992, tebufenozide]: the “Luciferase Activity (light units)” value in assay [1] (10 μM ligand) is 860 light units; in assay [2] (10 μM ligand), 7,003 light units; in assay [3] (10 μM ligand, approximately 48 hours, maize cells, 35S/GAL4-EcR^330-878 + 35S/USP-VP16, (GAL4)10-Bz1/Luc), 130,601 light units; in assay [4] it was 37,579 light units; in assay [5], 24,631 light units; in assay [6], 11,069 light units. Moreover, in assay [3] (10 μM RH5992, GAL4-EcR^330-878 + USP-VP16, maize cells), the “level of expression of luciferase above that observed in the absence of chemical ligand” value is 36 fold.
For `C[C@H]([C@H](O)CCC(C)(C)O)[C@H]1CC[C@@]2(O)C3=CC(=O)[C@@H]4C[C@@H](O)[C@@H](O)C[C@]4(C)[C@H]3CC[C@]12C` [ecdysone], the “Luciferase Activity (light units)” value in assay [2] (1 μM ligand) is recorded as 7,420 light units.
For “GAL4-EcR^330-878 chimeric receptor polypeptide (from UniProt P04386 1-147; P34021 330-878)”, in assay [7], the Luciferase Activity (light units), (GAL4)10-Bz1/Luc target cassette in maize cells, with 10 uM RH5992 came to 131000 light units; the Luciferase Activity (light units), (GAL4)10-Bz1/Luc target cassette in maize cells, without RH5992 was 3590 light units; the level of expression of the target polypeptide luciferase with RH5992 over that in the absence of chemical ligand amounted to 36 fold.
